Laboratory results from US9737596B2, “Vaccine for the prevention of breast cancer recurrence” (The Henry M. Jackson Foundation for the Advancement of …, priority 2008, dated 2017).

What was measured:
[1] = system: GP2-specific CD8+ T-lymphocytes; test: Phase II trial: HLA-A2:Immunoglobulin dimer assay, GP2-specific CD8+ T-lymphocytes; assay type: in vivo, human
Description: (§1) Disease-free, high risk breast cancer patients who have completed standard adjuvant therapy were enrolled at multiple sites and randomized to receive six monthly inoculations of either 500 mcg of GP2 with 125 mcg of GM-CSF (Peptide group; PG) or 125 mcg of GM-CSF alone (adjuvant group; AG). Toxicity was assessed after each inoculation. Immunologic response was monitored by measured delayed type hypersensitivity reactions (DTH) and an HLA-A2:Immunoglobulin dimer assay to detect GP2-specific CD8^+ T-lymphocytes. Patients were monitored clinically, radiographically, and pathologically for recurrence.

[2] = system: disease-free, high risk breast cancer patients; test: Phase II trial: DTH reaction to GP2; assay type: in vivo, human
Description: as §1

[3] = system: disease-free, high risk breast cancer patients; test: Phase II trial: toxicity; assay type: in vivo, human; conditions: six monthly inoculations
Description: as §1

[4] = system: disease-free, high risk breast cancer patients; test: Phase II trial: breast cancer recurrence; assay type: in vivo, human; conditions: median follow up of 17.9 months, preliminary data
Description: as §1

HLA-A2 molecule = conditions: cited from earlier work

## GM-CSF: granulocyte macrophage-colony stimulating factor, 125 mcg alone, control adjuvant group of phase II trial
[1]; 6 months after completion of the primary series
  % GP2-specific CD8+ lymphocytes: 1.41±0.49%
[1]; baseline
  % GP2-specific CD8+ lymphocytes: 1.08±0.16%
[2]; post-vaccination
  patients with significant immunity (SI) by DTH (reaction larger than 1 cm): 45.5%
[2]; post-vaccination (after completion of primary series)
  Median DTH reaction to GP2: 0.5±3.3 cm
[2]; pre-vaccination
  Median DTH reaction to GP2: 0.0±1.0 cm
[3]
  grade 3-5 systemic toxicities: no grade 3-5 systemic toxicities
  grade 4-5 local toxicities: no grade 4-5 local toxicities
[4]
  recurrence rate: 13%

## IISAVVGIL (listed as Homo sapiens) [GP2, nine amino acid peptide from the transmembrane portion of HER2/neu, amino acids 654-662]
HLA-A2 molecule
  binding affinity for the HLA-A2 molecule: relatively poor binding affinity
